# Assay results: patent publication US8242110B2, “Use of antihistamine agents for the preventive or early treatment of inflammatory syndromes, in particular those triggered by togaviruses” (Pierre Fabre Medicament, priority 2006, dated 2012)
# Test system: Chikungunya virus
# Assay: Observational study of mequitazine in preventive and early treatment of inflammatory syndromes caused by the Chikungunya virus
# Format: in vivo
# Conditions: patients
# Method: Effect of Mequitazine on the Preventive and Early Treatment of Inflammatory Syndromes Caused by the Chikungunya Virus—Results of an Observational Study
# 104 patients were included in this observational study involving a limited number of doctors held secret: mean age 39.6 years, 61.9% female.
# At the time of inclusion at D0, the patients were slightly feverish with a mean temperature of 38.4° C.
# The patients consulted after various periods following the onset of hyperthermia, but generally 1.1 days after this onset, the phase preceding the onset of arthralgia.
# During this first visit, the most painful joints were the fingers, wrists and ankles.
# At this first visit on D0, the doctors gave mequitazine to the patients, possibly in combination with an anti-inflammatory.
# A questionnaire was handed to each patient and completed with the patient.
# This questionnaire included the content of 2 conventional questionnaires: • HAQ* questionnaire (Health Assessment Questionnaire) to assess the functional capacity of patients (function index) i.e. the handicap generated by the pathology; • A SF12** questionnaire to assess the quality of life of the patient using the SF12 score.
# At D7 and D14 the patient again filled in these questionnaires.
# At D28, at the time of a further consultation, these questionnaires were again updated. • HAQ: Bruce B and Fries J. The Stanford Health Assessment Questionnaire (HAQ): A review of its history, issues, progress and documentation. J. Rheumatol. 2003; 30(1):167-78. • SF12: Ware J Jr, Kosinski M, Keller S D. A 12-item Short-Form Health Survey: construction of scales and preliminary tests of reliability and validity. Med. Care 1996; 34:220-33.
compound,measurement,setting,value
c1ccc2c(c1)Sc1ccccc1N2CC1CN2CCC1CC2 (centres unmarked) [mequitazine],handicap generated by the pathology (HAQ function index),"at D14, mequitazine given at D0",statistically significant improvement
same,handicap generated by the pathology (HAQ function index),"at D28, mequitazine given at D0",statistically significant improvement
same,number of painful joints,"between D0 and D7, decrease continuing in time",significant decrease
same,influence of combining an anti-inflammatory with mequitazine on the SF12 physical score measuring quality of life,mequitazine combined with an anti-inflammatory,does not have an influence
same,physical recovery (SF12 scale and HAQ test) in relation to how early mequitazine is prescribed,the earlier a patient consults and mequitazine is prescribed,the more physical recovery is swift and extensive
